From patent publication US9510598B2, “Nitrogen-containing heterocyclic compounds for plant disease control” (BAYER CROPSCIENCE AG, priority 2012, dated 2016)

Format: physicochemical
Conditions: HPLC on reversed phase columns, method [a]: pH 2.7, 0.1% formic acid in water / acetonitrile, linear gradient 10% to 95% acetonitrile

Row | SMILES | log P
1 | CCn1cc(CNC(=O)C2(C)CC(c3ccc4ncc(Br)cc4c3)=NO2)c(SC)n1 (centres unmarked) [compound 638] | 2.78[a]
2 | COc1cc(CNC(=O)C2(C)CC(c3ccc4ncc(Br)cc4c3)=NO2)ccn1 (centres unmarked) [compound 671] | 2.54[a]
3 | C#Cc1cnc2ccc(C3=NOC(C)(C(=O)NCc4cccc(C(C)C)n4)C3)cc2c1 (centres unmarked) [compound 660] | 2.07[a]
4 | CC(C)NC(=O)C12CCCCC1C(c1ccc3ncc(Br)cc3c1)=NO2 (centres unmarked) [compound 272] | 3.55[a]
5 | CC1(C(=O)NCC2CCCCC2)CC(c2ccc3ncc(Br)cc3c2)=NO1 (centres unmarked) [compound 249] | 3.96^[a]
6 | CN(C)CCCNC(=O)C1(C)CC(c2ccc3ncc(Br)cc3c2)=NO1 (centres unmarked) [compound 297] | 1.23[a]
7 | C#Cc1cnc2c(C)cc(C3=NOC(OC)(C(=O)NCc4cn(CC)nc4C)C3)cc2c1 (centres unmarked) [compound 609] | 2.62[a]
8 | CC1(C(=O)NC2CC2)CC(c2ccc3ncc(Br)cc3c2)=NO1 (centres unmarked) [compound 317] | 2.40[a]
9 | Cc1cc(C2=NOC(C)(C(=O)NC(C)C)C2)cc2cc(Br)cnc12 (centres unmarked) [compound 573] | 3.51[a]
10 | COc1cnccc1CNC(=O)C1(C)CC(c2ccc3ncc(Br)cc3c2)=NO1 (centres unmarked) [compound 673] | 1.56[a]
11 | C#CCOc1coc(CNC(=O)C2(C)CC(c3ccc4ncc(C#C)cc4c3)=NO2)cc1=O (centres unmarked) [compound 233] | 1.98^[a]
12 | COc1ccc(CNC(=O)C2(C)CC(c3ccc4ncc(Br)cc4c3)=NO2)cn1 (centres unmarked) [compound 679] | 2.66[a]
13 | C#CC1(C(=O)NCc2cnc(C)cn2)CC(c2ccc3ncc(Br)cc3c2)=NO1 (centres unmarked) [compound 628] | 2.41[a]
14 | C#Cc1cnc2ccc(C3=NOC(C)(C(=O)NCc4ccncn4)C3)cc2c1 (centres unmarked) [compound 663] | 1.78[a]
15 | CC(C)CCC(C)NC(=O)C1(C)CC(c2ccc3ncc(Br)cc3c2)=NO1 (centres unmarked) [compound 328] | 4.21[a]
16 | CC1(C(=O)NCc2ncccn2)CC(c2ccc3ncc(Br)cc3c2)=NO1 (centres unmarked) [compound 661] | 2.13[a]
17 | C#Cc1cnc2c(Cl)cc(C3=NOC(OC)(C(=O)NCCCOCC)C3)cc2c1 (centres unmarked) [compound 594] | 2.88[a]
18 | CCCn1cc(CNC(=O)C2(C(C)=O)CC(c3ccc4ncc(Br)cc4c3)=NO2)c(C)n1 (centres unmarked) [compound 586] | 2.80[a]
19 | C#CC1(C(=O)NC2CCC2)CC(c2ccc3ncc(Br)cc3c2)=NO1 (centres unmarked) [compound 625] | 3.11[a]
20 | C#Cc1cnc2ccc(C3=NOC(C)(C(=O)NCC(F)F)C3)cc2c1 (centres unmarked) [compound 652] | 2.26[a]
21 | C#Cc1cnc2c(C)cc(C3=NOC(OC)(C(=O)NC4CCC4)C3)cc2c1 (centres unmarked) [compound 612] | 3.15[a]
22 | CC1(C(=O)NCc2cnn(CC(F)F)c2)CC(c2ccc3ncc(Br)cc3c2)=NO1 (centres unmarked) [compound 646] | 2.42[a]
23 | C#Cc1cnc2ccc(C3=NOC(C)(C(=O)NCc4cn(CCCCC)nc4C)C3)cc2c1 (centres unmarked) [compound 654] | 2.96[a]
24 | C#Cc1cnc2c(C)cc(C3=NOC(C)(C(=O)NC4CCC4)C3)cc2c1 (centres unmarked) [compound 578] | 3.25[a]
25 | C#Cc1cnc2ccc(C3=NOC(C)(C(=O)NC(C)c4ccc(OC(F)(F)F)cc4)C3)cc2c1 (centres unmarked) [compound 342] | 3.71[a]

Same assay, conditions: HPLC on reversed phase columns, method [a]: pH 2.7, 0.1% formic acid in water and acetonitrile, linear gradient 10% to 95% acetonitrile

Row | SMILES | log P
26 | C#Cc1cnc2ccc(C3=NOC(C)(C(=O)N(Cc4cc(F)cc5c4C(C)(C)CCC5)C4CC4)C3)cc2c1 (racemic) [compound 816] | 5.54[a]
27 | CC(C)CNC(=O)C1(C)CC(c2ccc3ncc(Br)cc3c2)=NO1 (centres unmarked) [compound 743] | 3.15[a]
28 | C#Cc1cnc2ccc(C3=NOC(C)(C(=O)NCc4cncc(OC)c4)C3)cc2c1 (centres unmarked) [compound 696] | 1.59[a]
29 | C#Cc1cnc2ccc(C3=NOC(C)(C(=O)NCC4CCC4)C3)cc2c1 (centres unmarked) [compound 778] | 2.88[a]
30 | CC1(C(=O)NCCC#N)CC(c2ccc3ncc(Br)cc3c2)=NO1 (centres unmarked) [compound 720] | 2.15[a]
31 | C#Cc1cnc2ccc(C3=NOC(C)(C(=O)NCc4ccc(O)nc4)C3)cc2c1 (centres unmarked) [compound 806] | 1.54[a]
32 | CC(C)c1ccnc(CNC(=O)C2(C)CC(c3ccc4ncc(Br)cc4c3)=NO2)c1 (centres unmarked) [compound 750] | 2.05[a]
33 | CC1(C(=O)NCc2cncc(Cl)n2)CC(c2ccc3ncc(Br)cc3c2)=NO1 (centres unmarked) [compound 792] | 2.71[a]
34 | CC1(C(=O)NCc2ccc(O)nc2)CC(c2ccc3ncc(Br)cc3c2)=NO1 (centres unmarked) [compound 807] | 1.72[a]
35 | CC(C)Oc1cc(CNC(=O)C2(C)CC(c3ccc4ncc(Br)cc4c3)=NO2)ccn1 (centres unmarked) [compound 763] | 3.09[a]
36 | C#Cc1cnc2ccc(C3=NOC(C)(C(=O)NCc4ccc(OC)nc4)C3)cc2c1 (centres unmarked) [compound 681] | 2.37[a]
37 | CC(C)/C(=N\O)NC(=O)C1(C)CC(c2ccc3ncc(Br)cc3c2)=NO1 (centres unmarked) [compound 738] | 2.50[a]
38 | CC1(C(=O)NCc2cccnc2O)CC(c2ccc3ncc(Br)cc3c2)=NO1 (racemic) [compound 817] | 1.88[a]
39 | CC1(C(=O)NCCC2CC2)CC(c2ccc3ncc(Br)cc3c2)=NO1 (centres unmarked) [compound 710] | 3.17[a]
40 | C#Cc1cnc2ccc(C3=NOC(C)(C(=O)NCc4cc(CC)ccn4)C3)cc2c1 (centres unmarked) [compound 745] | 1.64[a]
41 | C#Cc1cnc2ccc(C3=NOC(C)(C(=O)NCc4cnc(Cl)cn4)C3)cc2c1 (centres unmarked) [compound 787] | 2.43[a]
42 | CC1(C(=O)NCc2cncc(F)c2)CC(c2ccc3ncc(Br)cc3c2)=NO1 (centres unmarked) [compound 784] | 2.37[a]
43 | C#Cc1cnc2ccc(C3=NOC(OC)(C(=O)NCc4cnccn4)C3)cc2c1 (centres unmarked) [compound 708] | 1.85[a]
44 | CC1(C(=O)N/C(=N/O)c2cccnc2)CC(c2ccc3ncc(Br)cc3c2)=NO1 (centres unmarked) [compound 741] | 2.10[a]
45 | C#Cc1cnc2ccc(C3=NOC(OC)(C(=O)NCCC4CCCO4)C3)cc2c1 (racemic) [compound 818] | 2.11[a]
46 | COc1cncc(CNC(=O)C2(C)CC(c3ccc4ncc(Br)cc4c3)=NO2)c1 (centres unmarked) [compound 698] | 1.78[a]
47 | C#Cc1cnc2ccc(C3=NOC(C)(C(=O)NCc4cncnc4)C3)cc2c1 (centres unmarked) [compound 697] | 1.74[a]
48 | CC1(C(=O)NCc2cnn(CC(F)(F)F)c2)CC(c2ccc3ncc(Br)cc3c2)=NO1 (centres unmarked) [compound 777] | 2.60[a]
49 | CC1(C(=O)N/C(=N/O)C(C)(C)C)CC(c2ccc3ncc(Br)cc3c2)=NO1 (centres unmarked) [compound 739] | 2.88[a]

Same assay, conditions: method [a]: HPLC/LC-MS on reversed phase at pH 2.7, 0.1% formic acid in water / acetonitrile, gradient 10% to 95% acetonitrile

Row | SMILES | log P
50 | CC1(C(=O)NCc2nccs2)CC(c2ccc3ncc(Br)cc3c2)=NO1 (centres unmarked) [compound 488] | 2.32[a]
51 | CC(C)NC(=O)C1(C[Si](C)(C)C)CC(c2ccc3ncc(Br)cc3c2)=NO1 (centres unmarked) [compound 395] | 4.66[a]
52 | CCn1cc(CNC(=O)C2(C)CC(c3ccc4nc(C#N)c(I)cc4c3)=NO2)c(C)n1 (racemic) [compound 431] | 2.57[a]
53 | CCn1cc(CNC(=O)C23CC2C(c2ccc4ncc(Br)cc4c2)=NO3)c(C)n1 (racemic) [compound 399] | 2.44[a]
54 | CCn1cc(CNC(=O)C2(C)CC(c3ccc4ncc(C(F)=CC(F)(F)F)cc4c3)=NO2)c(C)n1 (centres unmarked) [compound 405] | 2.84[a]
55 | CC1CCCC(C)C1NC(=O)C1(C)CC(c2ccc3ncc(Br)cc3c2)=NO1 (racemic) [compound 372] | 4.29[a]
56 | CCn1cc(CNC(=S)C2(OC)CC(c3ccc4ncc(Br)cc4c3)=NO2)c(C)n1 (centres unmarked) [compound 478] | 3.15[a]
57 | C#Cc1cnc2ccc(C3=NOC(C)(C(=O)NC(C)CCC(C)C)C3)cc2c1 (racemic) [compound 369] | 3.73[a]
58 | CC(C)NC(=O)C1(C)CC(c2ccc3nc(Cl)c(I)cc3c2)=NO1 (centres unmarked) [compound 486] | 3.50[a]

Same assay, conditions: method [a]: HPLC/LC-MS on reversed phase at pH 2.7, 0.1% formic acid in water / acetonitrile, linear gradient 10% to 95% acetonitrile

Row | SMILES | log P
59 | CC1(C(=O)NCc2ccccc2Oc2ccccc2)CC(c2ccc3ncc(Br)cc3c2)=NO1 (centres unmarked) [compound 207] | 4.32^[a]
60 | C#Cc1cnc2ccc(C3=NOC(C)(C(=O)NC4(C#C)CCCCC4)C3)cc2c1 (centres unmarked) [compound 218] | 3.48^[a]
61 | CC1(C(=O)NCc2cccs2)CC(c2ccc3ncc(Br)cc3c2)=NO1 (centres unmarked) [compound 89] | 3.06^[a]
62 | CC1(C(=O)NCC2CCCOC2c2ccccc2)CC(c2ccc3ncc(Br)cc3c2)=NO1 (centres unmarked) [compound 113] | 3.5^[a]
63 | CC1(C(=O)NCC2OCCc3ccccc32)CC(c2ccc3ncc(Br)cc3c2)=NO1 (centres unmarked) [compound 117] | 3.33^[a]
64 | CC1(C(=O)NCc2ccc3c(c2)OCC3)CC(c2ccc3ncc(Br)cc3c2)=NO1 (centres unmarked) [compound 123] | 3.17^[a]
65 | Cc1cc2cc(CNC(=O)C3(C)CC(c4ccc5ncc(Br)cc5c4)=NO3)ccc2[nH]1 (centres unmarked) [compound 114] | 3.17^[a]
66 | CC1(C(=O)NCc2cc(Cl)cc(Cl)c2)CC(c2ccc3ncc(Br)cc3c2)=NO1 (centres unmarked) [compound 97] | 4.16^[a]
67 | Cn1cncc1CNC(=O)C1(C)CC(c2ccc3ncc(Br)cc3c2)=NO1 (centres unmarked) [compound 203] | 2.14^[a]
68 | CC1(C(=O)NCc2cccc3ccccc23)CC(c2ccc3ncc(Br)cc3c2)=NO1 (centres unmarked) [compound 224] | 3.85^[a]
69 | CC(C)NC(=O)C1(c2ccccc2)CC(c2ccc3ncc(Br)cc3c2)=NO1 (centres unmarked) [compound 136] | 3.78^[a]

Same assay, conditions: method [a]: HPLC/LC-MS on reversed phase at pH 2.7, 0.1% formic acid in water and acetonitrile, linear gradient 10% to 95% acetonitrile

Row | SMILES | Log P
70 | CCOCCCNC(=O)C1(C(F)(F)F)CC(c2cc3cc(Br)cnc3c(F)c2F)=NO1 (centres unmarked) [compound 16] | 3.71^[a]
71 | CON(OC)C(=O)C1(C)CC(c2cc3cc(Br)cnc3c(F)c2F)=NO1 (centres unmarked) [compound 9] | 2.92^[a]

Same assay, conditions: pH 2.7

Row | SMILES | chromatographic logP
72 | CCOCCCNC(=O)C1(C(F)F)CC(c2ccc3ncc(Br)cc3c2)=NO1 (centres unmarked) [Compound No. 623, 3-(3-bromoquinolin-6-yl)-5-(difluoromethyl)-N-(3-ethoxypropyl)-4,5-dihydro-1,2-oxazole-5-carboxamide] | 3.06
73 | CC(C)NC(=O)C1(C)CC(c2ccc3ncc(-c4cccs4)cc3c2)=NO1 (centres unmarked) [Compound No. 144] | 3.04
74 | COC(=O)C1(C)CC(c2ccc3ncc(I)cc3c2)=NO1 (centres unmarked) [Compound No. 11-30] | 2.71
